pIC50: −log10 of the molar value.
How the values were obtained:
Experiment in all cases: cells
[1] = test system: JAR; format: functional, cell-based, Homo sapiens; conditions: Homo sapiens, JAR;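 note: growth inhibition of human JAR cells determined with a cell viability assay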
Description: SANGER: Inhibition of human JAR cell growth in a cell viability assay.

[2] = test system: ETK-1; format: functional, cell-based, Homo sapiens; conditions: Homo sapiens, ETK-1;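 note: growth inhibition of human ETK-1 cells, read out with a cell viability assay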
Description: SANGER: Inhibition of human ETK-1 cell growth in a cell viability assay.

[3] = test system: SNU1; format: functional, cell-based, Homo sapiens; conditions: Homo sapiens, SNU1;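 note: growth inhibition of human NCI-SNU-1 cells, measured with a cell viability assay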
Description: SANGER: Inhibition of human NCI-SNU-1 cell growth in a cell viability assay.

[4] = test system: SK-UT-1; format: functional, cell-based, Homo sapiens; conditions: Homo sapiens, SK-UT-1;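 note: growth inhibition of SK-UT-1 cells, measured by a cell viability assay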
Description: SANGER: Inhibition of human SK-UT-1 cell growth in a cell viability assay.

[5] = test system: no-11; format: functional, cell-based, Homo sapiens; conditions: Homo sapiens;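 note: growth inhibition of human NO-11 cells, read out with a cell viability assay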
Description: SANGER: Inhibition of human no-11 cell growth in a cell viability assay.

[6] = test system: OMC-1; format: functional, cell-based, Homo sapiens; conditions: Homo sapiens, OMC-1;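 note: growth inhibition of the OMC-1 cell line, measured by a cell viability assay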
Description: SANGER: Inhibition of human OMC-1 cell growth in a cell viability assay.

[7] = test system: DB; format: functional, cell-based, Homo sapiens; conditions: Homo sapiens, DB
Description: SANGER: Inhibition of human DB cell growth in a cell viability assay.

[8] = test system: IST-SL1; format: functional, cell-based, Homo sapiens; conditions: Homo sapiens, IST-SL1;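 note: growth inhibition of human IST-SL1 cells, read out with a cell viability assay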
Description: SANGER: Inhibition of human IST-SL1 cell growth in a cell viability assay.

[9] = test system: BE-13; format: functional, cell-based, Homo sapiens; conditions: Homo sapiens, BE-13;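 note: growth inhibition of human BE-13 cells, measured with a cell viability assay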
Description: SANGER: Inhibition of human BE-13 cell growth in a cell viability assay.

[10] = test system: BT-474; format: functional, cell-based, Homo sapiens; conditions: Homo sapiens, BT-474
Description: SANGER: Inhibition of human BT-474 cell growth in a cell viability assay.

[11] = test system: MZ2-MEL; format: functional, cell-based, Homo sapiens; conditions: Homo sapiens, MZ2-MEL;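 note: growth inhibition of MZ2-MEL cells read out with a cell viability assay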
Description: SANGER: Inhibition of human MZ2-MEL cell growth in a cell viability assay.

[12] = test system: MFM-223; format: functional, cell-based, Homo sapiens; conditions: Homo sapiens, MFM-223
Description: SANGER: Inhibition of human MFM-223 cell growth in a cell viability assay.

[13] = test system: LOX IMVI; format: functional, cell-based, Homo sapiens; conditions: Homo sapiens, LOX IMVI
Description: SANGER: Inhibition of human LOXIMVI cell growth in a cell viability assay.

[14] = test system: LAN-6; format: functional, cell-based, Homo sapiens; conditions: Homo sapiens, LAN-6;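 note: growth inhibition of LAN-6 cells, determined with a cell viability assay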
Description: SANGER: Inhibition of human LAN-6 cell growth in a cell viability assay.

[15] = test system: KP-N-YS; format: functional, cell-based, Homo sapiens; conditions: Homo sapiens, KP-N-YS;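 note: cell viability assay measuring inhibition of cell line growth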
Description: SANGER: Inhibition of human KP-N-YS cell growth in a cell viability assay.

[16] = test system: SCC-15; format: functional, cell-based, Homo sapiens; conditions: Homo sapiens, SCC-15;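 note: growth inhibition of SCC-15 cells, read out with a cell viability assay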
Description: SANGER: Inhibition of human SCC-15 cell growth in a cell viability assay.

[17] = test system: L-363; format: functional, cell-based, Homo sapiens; conditions: Homo sapiens, L-363
Description: SANGER: Inhibition of human L-363 cell growth in a cell viability assay.

[18] = test system: U-87 MG; format: functional, cell-based, Homo sapiens, U-87MG ATCC; conditions: Homo sapiens, U-87 MG;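 note: growth inhibition of the cells measured with a viability assay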
Description: SANGER: Inhibition of human U-87-MG cell growth in a cell viability assay.

[19] = test system: DMS-114; format: functional, cell-based, Homo sapiens; conditions: Homo sapiens, DMS-114
[20] = test system: MV4-11; format: functional, cell-based, Homo sapiens, MV-4-11; conditions: Homo sapiens, MV4-11;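 note: cell viability readout measuring growth inhibition of human MV-4-11 cells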
Description: SANGER: Inhibition of human MV-4-11 cell growth in a cell viability assay.

[21] = test system: RCC10RGB; format: functional, cell-based, Homo sapiens; conditions: Homo sapiens, RCC10RGB;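 note: growth inhibition of human RCC10RGB cells, read out by a cell viability assay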
Description: SANGER: Inhibition of human RCC10RGB cell growth in a cell viability assay.

[22] = test system: BB65-RCC; format: functional, cell-based, Homo sapiens; conditions: Homo sapiens, BB65-RCC;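 note: growth inhibition of the cell line, measured with a cell viability assay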
Description: SANGER: Inhibition of human BB65-RCC cell growth in a cell viability assay.

[23] = test system: TE-1; format: functional, cell-based, Homo sapiens; conditions: Homo sapiens, TE-1;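 note: growth inhibition of the human TE-1 cell line, read out with a cell viability assay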
Description: SANGER: Inhibition of human TE-1 cell growth in a cell viability assay.

[24] = test system: COLO-829; format: functional, cell-based, Homo sapiens; conditions: Homo sapiens, COLO-829
Description: SANGER: Inhibition of human COLO-829 cell growth in a cell viability assay.

[25] = test system: EW-13; format: functional, cell-based, Homo sapiens; conditions: Homo sapiens, EW-13; read-out: IC50;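 note: growth inhibition of EW-13 cells, read out with a cell viability assay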
Description: SANGER: Inhibition of human EW-13 cell growth in a cell viability assay.

[26] = test system: NKM-1; format: functional, cell-based, Homo sapiens; conditions: Homo sapiens, NKM-1;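 note: growth inhibition of NKM-1 cells, read out with a cell viability assay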
Description: SANGER: Inhibition of human NKM-1 cell growth in a cell viability assay.

[27] = test system: SK-NEP-1; format: functional, cell-based, Homo sapiens; conditions: Homo sapiens, SK-NEP-1;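 note: growth inhibition of human SK-NEP-1 cells, read out by a cell viability assay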
Description: SANGER: Inhibition of human SK-NEP-1 cell growth in a cell viability assay.

[28] = test system: HT; format: functional, cell-based, Homo sapiens; conditions: Homo sapiens, HT
Description: SANGER: Inhibition of human HT cell growth in a cell viability assay.

[29] = test system: LB771-HNC; format: functional, cell-based; conditions: Homo sapiens;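 note: growth inhibition of LB771-HNC human cells, read out with a cell viability assay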
Description: SANGER: Inhibition of human LB771-HNC cell growth in a cell viability assay.

[30] = test system: GI-1; format: functional, cell-based, Homo sapiens; conditions: Homo sapiens, GI-1;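 note: growth inhibition of human GI-1 cells, measured with a cell viability readout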
Description: SANGER: Inhibition of human GI-1 cell growth in a cell viability assay.

[31] = test system: DJM-1; format: functional, cell-based, Homo sapiens; conditions: Homo sapiens, DJM-1;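 note: growth inhibition of human DJM-1 cells, read out by a cell viability assay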
Description: SANGER: Inhibition of human DJM-1 cell growth in a cell viability assay.

[32] = test system: TE-6; format: functional, cell-based, Homo sapiens; conditions: Homo sapiens, TE-6;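 note: growth inhibition of TE-6 cells, read out with a cell viability assay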
Description: SANGER: Inhibition of human TE-6 cell growth in a cell viability assay.

[33] = test system: SW872; format: functional, cell-based, Homo sapiens; conditions: Homo sapiens, SW872;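 note: growth inhibition of SW872 cells, read out by a viability assay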
Description: SANGER: Inhibition of human SW872 cell growth in a cell viability assay.

[34] = test system: HAL-01; format: functional, cell-based, Homo sapiens; conditions: Homo sapiens, HAL-01;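 note: growth inhibition of human HAL-01 cells, read out with a cell viability assay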
Description: SANGER: Inhibition of human HAL-01 cell growth in a cell viability assay.

[35] = test system: KE-37; format: functional, cell-based, Homo sapiens; conditions: Homo sapiens, KE-37;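 note: growth inhibition of KE-37 cells, read out with a cell viability assay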
Description: SANGER: Inhibition of human KE-37 cell growth in a cell viability assay.

[36] = test system: MEG-01; format: functional, cell-based, Homo sapiens; conditions: Homo sapiens, MEG-01;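 note: growth inhibition of MEG-01 cells, read out by a cell viability assay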
Description: SANGER: Inhibition of human MEG-01 cell growth in a cell viability assay.

[37] = test system: OCI-AML2; format: functional, cell-based, Homo sapiens; conditions: Homo sapiens, OCI-AML2;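 note: growth inhibition of OCI-AML2 cells, read out with a cell viability assay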
Description: SANGER: Inhibition of human OCI-AML2 cell growth in a cell viability assay.

[38] = test system: MOLT-16; format: functional, cell-based, Homo sapiens; conditions: Homo sapiens, MOLT-16;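 note: growth inhibition of human MOLT-16 cells, read out with a cell viability assay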
Description: SANGER: Inhibition of human MOLT-16 cell growth in a cell viability assay.

[39] = test system: D-502MG; format: functional, cell-based, Homo sapiens; conditions: Homo sapiens, D-502MG
Description: SANGER: Inhibition of human D-502MG cell growth in a cell viability assay.

[40] = test system: NCI-H1395; format: functional, cell-based, Homo sapiens; conditions: Homo sapiens, NCI-H1395;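 note: cell viability assay read-out quantifying reduced proliferation of human NCI-H1395 cells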
Description: SANGER: Inhibition of human NCI-H1395 cell growth in a cell viability assay.

[41] = test system: A704; format: functional, cell-based; conditions: Homo sapiens;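 note: growth inhibition of human A704 cells, read out with a cell viability assay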
Description: SANGER: Inhibition of human A704 cell growth in a cell viability assay.

[42] = test system: J-RT3-T3-5; format: functional, cell-based, Homo sapiens; conditions: Homo sapiens, J-RT3-T3-5;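 note: cell viability assay measuring growth inhibition of human J-RT3-T3-5 cells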
Description: SANGER: Inhibition of human J-RT3-T3-5 cell growth in a cell viability assay.

[43] = test system: EW-3; format: functional, cell-based, Homo sapiens; conditions: Homo sapiens, EW-3;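 note: cell viability assay read-out, IC50 reflects inhibition of growth of the EW-3 cells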
Description: SANGER: Inhibition of human EW-3 cell growth in a cell viability assay.

[44] = test system: HCC2218; format: functional, cell-based, Homo sapiens; conditions: Homo sapiens, HCC2218;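 note: cell viability assay read-out, with IC50 given as the concentration that inhibits growth of the cell line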
Description: SANGER: Inhibition of human HCC2218 cell growth in a cell viability assay.

[45] = test system: NCI-H720; format: functional, cell-based, Homo sapiens; conditions: Homo sapiens, NCI-H720;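 note: growth inhibition of human NCI-H720 cells determined by a cell viability assay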
Description: SANGER: Inhibition of human NCI-H720 cell growth in a cell viability assay.

[46] = test system: ML-2; format: functional, cell-based, Homo sapiens; conditions: Homo sapiens, ML-2;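 note: growth inhibition of ML-2 cells, measured with a cell viability readout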
Description: SANGER: Inhibition of human ML-2 cell growth in a cell viability assay.

[47] = test system: COR-L88; format: functional, cell-based, Homo sapiens; conditions: Homo sapiens, COR-L88;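 note: growth inhibition of COR-L88 cells, read out with a cell viability assay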
Description: SANGER: Inhibition of human COR-L88 cell growth in a cell viability assay.

[48] = test system: KU812 cell line; format: functional, cell-based, Homo sapiens; conditions: Homo sapiens, KU812;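 note: growth inhibition of KU812 cells, read out with a cell viability assay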
Description: SANGER: Inhibition of human KU812 cell growth in a cell viability assay.

[49] = test system: BV-173; format: functional, cell-based, Homo sapiens; conditions: Homo sapiens, BV-173
Description: SANGER: Inhibition of human BV-173 cell growth in a cell viability assay.

**Q.** With `O=C(NCCCNc1nc(Nc2cccc(NC(=O)N3CCCC3)c2)ncc1I)c1cccs1` [BX-795] as the compound, how does the pIC50 [1] read?
**A.** 5.46

**Q.** What about the pIC50 [2] of the same compound?
**A.** 5.34

**Q.** And the pIC50 [3]?
**A.** 5.38

**Q.** And the pIC50 [4]?
**A.** 5.64

**Q.** And the pIC50 [5]?
**A.** < 5.30

**Q.** And the pIC50 [6]?
**A.** < 5.30

**Q.** And the pIC50 [7]?
**A.** 5.67

**Q.** What about the pIC50 [8] of the same compound?
**A.** 5.63

**Q.** And the pIC50 [9]?
**A.** 6.15

**Q.** And the pIC50 [10]?
**A.** < 5.30

**Q.** What about the pIC50 [11] of the same compound?
**A.** < 5.30

**Q.** What about the pIC50 [12] of the same compound?
**A.** < 5.30

**Q.** And the pIC50 [13]?
**A.** 5.82

**Q.** What about the pIC50 [14] of the same compound?
**A.** < 5.30

**Q.** What about the pIC50 [15] of the same compound?
**A.** < 5.30

**Q.** What about the pIC50 [16] of the same compound?
**A.** < 5.30

**Q.** And the pIC50 [17]?
**A.** 5.93

**Q.** What about the pIC50 [18] of the same compound?
**A.** < 5.30

**Q.** And the pIC50 [19]?
**A.** < 5.30

**Q.** And the pIC50 [20]?
**A.** 7.43

**Q.** What about the pIC50 [21] of the same compound?
**A.** < 5.30

**Q.** And the pIC50 [22]?
**A.** < 5.30

**Q.** And the pIC50 [23]?
**A.** < 5.30

**Q.** What about the pIC50 [24] of the same compound?
**A.** < 5.30

**Q.** And the pIC50 [25]?
**A.** < 5.30

**Q.** And the pIC50 [26]?
**A.** 6.44

**Q.** What about the pIC50 [27] of the same compound?
**A.** 5.78

**Q.** And the pIC50 [28]?
**A.** < 5.30

**Q.** And the pIC50 [29]?
**A.** < 5.30

**Q.** And the pIC50 [30]?
**A.** < 5.30

**Q.** What about the pIC50 [31] of the same compound?
**A.** < 5.30

**Q.** And the pIC50 [32]?
**A.** < 5.30

**Q.** And the pIC50 [33]?
**A.** 5.57

**Q.** And the pIC50 [34]?
**A.** < 5.30

**Q.** And the pIC50 [35]?
**A.** 5.51

**Q.** And the pIC50 [36]?
**A.** < 5.30

**Q.** And the pIC50 [37]?
**A.** < 5.30

**Q.** What about the pIC50 [38] of the same compound?
**A.** 5.50

**Q.** And the pIC50 [39]?
**A.** < 5.30

**Q.** And the pIC50 [40]?
**A.** < 5.30

**Q.** What about the pIC50 [41] of the same compound?
**A.** < 5.30

**Q.** And the pIC50 [42]?
**A.** < 5.30

**Q.** Which results are given for `NC1(c2ccc(-c3nc4ccn5c(=O)[nH]nc5c4cc3-c3ccccc3)cc2)CCC1` [MK-2206]?
**A.** pIC50 [1]: < 5.40; pIC50 [2]: < 5.40; pIC50 [3]: < 5.40; pIC50 [43]: 5.50; pIC50 [5]: < 5.40; pIC50 [6]: 5.76; pIC50 [7]: < 5.40; pIC50 [8]: < 5.40; pIC50 [44]: 5.77; pIC50 [9]: < 5.40; pIC50 [10]: < 5.40; pIC50 [11]: < 5.40; pIC50 [12]: 5.87; pIC50 [13]: < 5.40; pIC50 [14]: < 5.40; pIC50 [15]: < 5.40; pIC50 [16]: < 5.40; pIC50 [17]: 6.08; pIC50 [18]: < 5.40; pIC50 [19]: 5.44; pIC50 [45]: 6.42; pIC50 [20]: 5.56; pIC50 [21]: < 5.40; pIC50 [22]: < 5.40; pIC50 [23]: < 5.40; pIC50 [46]: < 5.40; pIC50 [25]: < 5.40; pIC50 [26]: 6.06; pIC50 [27]: 5.94; pIC50 [28]: 6.20; pIC50 [47]: < 5.40; pIC50 [29]: < 5.40; pIC50 [30]: < 5.40; pIC50 [31]: < 5.40; pIC50 [32]: < 5.40; pIC50 [48]: < 5.40; pIC50 [49]: 5.74; pIC50 [33]: < 5.40; pIC50 [34]: 6.21; pIC50 [35]: 6.23; pIC50 [36]: < 5.40; pIC50 [37]: < 5.40; pIC50 [38]: 6.52; pIC50 [39]: < 5.40; pIC50 [40]: 5.66; pIC50 [41]: < 5.40; pIC50 [42]: 6.13

**Q.** Which results are given for `CS(=O)(=O)N1CCN(Cc2cc3nc(-c4cccc5[nH]ncc45)nc(N4CCOCC4)c3s2)CC1` [PICTILISIB]?
**A.** pIC50 [1]: < 5.40; pIC50 [2]: < 5.40; pIC50 [3]: < 5.40; pIC50 [5]: < 5.40; pIC50 [6]: 6.12; pIC50 [7]: < 5.40; pIC50 [8]: < 5.40; pIC50 [9]: < 5.40; pIC50 [10]: < 5.40; pIC50 [11]: 5.44; pIC50 [12]: < 5.40; pIC50 [13]: 5.69; pIC50 [14]: < 5.40; pIC50 [15]: < 5.40; pIC50 [16]: < 5.40; pIC50 [17]: 6.10; pIC50 [18]: < 5.40; pIC50 [19]: < 5.40; pIC50 [20]: 6.14; pIC50 [21]: < 5.40; pIC50 [22]: < 5.40; pIC50 [23]: < 5.40; pIC50 [24]: < 5.40; pIC50 [25]: < 5.40; pIC50 [26]: 6.23; pIC50 [27]: 6.14; pIC50 [28]: 5.95; pIC50 [29]: < 5.40; pIC50 [30]: < 5.40; pIC50 [31]: < 5.40; pIC50 [32]: < 5.40; pIC50 [33]: 6.14; pIC50 [34]: 6.68; pIC50 [35]: < 5.40; pIC50 [36]: < 5.40; pIC50 [37]: < 5.40; pIC50 [38]: < 5.40; pIC50 [39]: 5.63; pIC50 [40]: < 5.40; pIC50 [41]: 5.82; pIC50 [42]: < 5.40

Reference: ChEMBL document CHEMBL1201861, “Genomics of Drug Sensitity in Cancer screening data, Wellcome Trust Sanger Institute”
